From patent publication US20250368640A1 (BIOFRONT LTD, priority 2022, published 2025) come the findings set out here.

pIC50: −log10 of the molar value. Like-named read-outs stand apart in the source and are kept apart here.

One assay concerns the target FLT3-ITD (Homo sapiens, UniProt P36888, ITD). In words: FLT3-ITD enzyme inhibition assay. It is filed as biochemical. As to the method: FLT3-ITD Enzyme Inhibition Assay
The compound was dissolved in 100% DMSO at the concentration of 10 mM. The FLT3-ITD protein was purchased from Invitrogen (PV6191). 10 μL per well of 2.5×FLT3-ITD protein was added to assay plate containing the test compound, centrifuged at 1000 rpm for 1 minute, and then incubated at 25° C. for 10 minutes. Peptide 2 was purchased from GL Biochem (112394) and ATP was purchased from Promega (V9102). The two were added 15 μL per well mixture of 1.67× peptide 2 (final conc. is 3 μM) and ATP (final conc. is 97.2 μM), centrifuged at 1000 rpm for 1 minute, then incubated at 25° C. for 40 minutes. Then added 30 μL of stop buffer (100 mM HEPES pH7.5, 0.015% Brij-35, 0.2% Coating Reagent 3, 50 mM EDTA) to the assay plate and centrifuged at 1000 rpm for 1 minute. the product was determined. Based on the results, the IC50 value of the compound was calculated.

The target of assay [1] is T1, HPK1 (Homo sapiens (Human), UniProt Q92918). Put plainly: HPK1 degradation assay (western blot, human PBMC). The conditions noted are these: for Dmax: read-out: HPK1 Dmax. The class given is cell-based. Here is the method: Frozen human PBMC were purchased from Shanghai OribioTech and recovered with culture medium (RMPI1640) prior to use. The cells were then incubated with a variety of concentrations of compound. After incubation, the cells were collected and lysed. The protein concentration was determined by BCA protein assay kit from Thermo (23227). The HPK1 protein level was determined by western blots, using anti-human HPK1 polyclonal antibody from CST (4472S). Proteins were loaded into each well of the pre-casting gels and subjected to electrophoretic separation by SDS-PAGE. The protein resolved by SDS-PAGE were transferred to PVDF, blocked by 5% skim milk, and probed with anti-human HPK1 antibody or β-actin antibody from CST (3700S), using standard western blotting procedure.
Target sequence in this assay (Q92918 whole entry): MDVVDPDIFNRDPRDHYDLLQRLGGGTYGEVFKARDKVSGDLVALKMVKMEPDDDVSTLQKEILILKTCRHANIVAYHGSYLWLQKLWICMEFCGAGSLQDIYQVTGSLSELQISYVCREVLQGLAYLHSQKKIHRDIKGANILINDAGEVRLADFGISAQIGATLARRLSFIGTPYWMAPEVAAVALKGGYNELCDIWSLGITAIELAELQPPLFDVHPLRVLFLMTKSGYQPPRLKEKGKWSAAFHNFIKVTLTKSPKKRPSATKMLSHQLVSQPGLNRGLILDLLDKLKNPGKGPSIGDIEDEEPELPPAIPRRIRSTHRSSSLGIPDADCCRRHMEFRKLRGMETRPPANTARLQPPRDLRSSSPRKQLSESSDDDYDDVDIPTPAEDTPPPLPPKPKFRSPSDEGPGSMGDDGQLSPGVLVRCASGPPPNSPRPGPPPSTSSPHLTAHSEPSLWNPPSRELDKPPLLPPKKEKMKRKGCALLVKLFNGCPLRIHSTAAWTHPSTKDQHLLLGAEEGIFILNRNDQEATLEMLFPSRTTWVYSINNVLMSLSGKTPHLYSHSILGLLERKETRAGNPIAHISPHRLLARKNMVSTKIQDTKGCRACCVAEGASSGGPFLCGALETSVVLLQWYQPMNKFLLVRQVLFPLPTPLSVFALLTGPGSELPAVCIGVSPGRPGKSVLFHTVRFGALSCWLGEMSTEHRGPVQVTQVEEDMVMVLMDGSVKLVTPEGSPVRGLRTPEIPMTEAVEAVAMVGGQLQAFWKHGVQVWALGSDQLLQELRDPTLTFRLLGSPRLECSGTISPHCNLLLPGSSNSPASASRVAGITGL
In general terms: Immunoblotting shows a protein as a band on a membrane.

In a further assay the test system is FLT3. In words: FLT3 degradation assay (western blot, MV-411 cells). It is filed as cell-based, human. As to the method:
(§1) MV-411 cells were cultured with medium (IMDM) prior to use. Cells were then incubated with a variety of concentrations of compound. After incubation, the cells were collected and lysed. The protein concentration was determined by BCA protein assay kit from Thermo (23227). The FLT3 protein level was determined by western blots, using anti-human FLT3 monoclonal antibody from CST (3462S). Proteins were loaded into each well of the pre-casting gels and subjected to electrophoretic separation by SDS-PAGE. The protein resolved by SDS-PAGE were transferred to PVDF, blocked by 5% skim milk, and probed with anti-human FLT3 antibody or -actin antibody from CST (3700S), using standard western blotting procedure.

For assay [2], the target named is T2, Aurora A (Homo sapiens (Human), UniProt O14965). In words: Aurora A degradation assay (western blot). The note with it: protein degradation, IMR32, Huh7 or HL-60 cells. The class given is cell-based. Here is the method: Aurora A Degradation Assay
T2 sequence (O14965 whole entry): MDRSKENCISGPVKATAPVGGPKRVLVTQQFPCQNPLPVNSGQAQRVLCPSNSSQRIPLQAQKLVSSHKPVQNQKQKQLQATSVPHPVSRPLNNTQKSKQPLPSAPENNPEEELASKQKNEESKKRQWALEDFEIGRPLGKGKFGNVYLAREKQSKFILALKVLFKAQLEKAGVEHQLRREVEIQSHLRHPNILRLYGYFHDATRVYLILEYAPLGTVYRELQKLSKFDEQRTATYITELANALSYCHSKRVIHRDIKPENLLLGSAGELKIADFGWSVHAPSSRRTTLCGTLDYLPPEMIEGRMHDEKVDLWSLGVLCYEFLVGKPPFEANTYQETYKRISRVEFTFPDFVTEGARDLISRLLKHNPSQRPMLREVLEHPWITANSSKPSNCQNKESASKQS
as §1, with “IMR32” for “MV-411”, “cultured with medium (MEM), Huh7 cells were cultured with medium (DMEM) and HL-60 cells were culture” for “cultured”, “AURKA” for “FLT3”, “(14475S).” for “(3462S).”, “β-actin” for “-actin”, “(3700S) or COX IV antibody from CST (4850S),” for “(3700S),”

A further assay relates to MEK 1/2. In words: MEK 1/2 degradation assay (western blot). The conditions noted are these: protein degradation, MV-411 or IMR32 cells. It is filed as cell-based, human. As to the method:
MEK 1/2 Degradation Assay
as §1, with “(IMDM) and IMR32 cells were cultured with medium (MEM)” for “(IMDM)”, “anti-human MEK 1/2 polyclonal” for “anti-human FLT3 monoclonal”, “CST (9122S).” for “CST (3462S).”, “anti-human MEK1/2” for “anti-human FLT3”, “or β-actin” for “or -actin”, “CST (3700S) and COX IV antibody from CST (4850S),” for “CST (3700S),”

Assay [3] concerns the target T1, HPK1. Put plainly: HPK1 enzyme inhibition assay (ADP-Glo). It is filed as biochemical. As to the method: HPK1 Enzyme Inhibition Assay
The compound was dissolved in 100% DMSO at the concentration of 10 mM. The HPK1 protein was purchased from Signal Chem (M23-11G-10). 2.5 μL per well of 2×HPK1 protein was added to assay plate containing the test compound, centrifuged at 1500 rpm for 1 minute, and then incubated at 25° C. for 60 minutes. MBP protein was purchased from Signal Chem (M42-51N) and ATP was purchased from Promega (V9102). The two were added 2.5 μL per well mixture of 2×MBP (0.2 ug/ul) and ATP (20 μM), centrifuged at 1500 rpm for 1 minute, then incubated at 25° C. for 60 minutes. Then added 5 μL of ADP-Glo from Promega (V9102) to the assay plate and depleted the unconsumed ATP for 60 minutes. Then centrifuged at 1500 rpm for 1 minute and incubated at 25° C. for 60 minutes. Finally, 10 μL of the kinase assay reagent from Promega (V9102) was added to the assay plate to convert ADP to ATP, centrifuged at 1500 rpm for 1 minute, incubate at 25° C. for 40 minutes. After 40 minutes incubation, the […] was determined. Based on the results, the IC50 value of the compound was calculated.
Target sequence in this assay (Q92918 1-346 limits assumed): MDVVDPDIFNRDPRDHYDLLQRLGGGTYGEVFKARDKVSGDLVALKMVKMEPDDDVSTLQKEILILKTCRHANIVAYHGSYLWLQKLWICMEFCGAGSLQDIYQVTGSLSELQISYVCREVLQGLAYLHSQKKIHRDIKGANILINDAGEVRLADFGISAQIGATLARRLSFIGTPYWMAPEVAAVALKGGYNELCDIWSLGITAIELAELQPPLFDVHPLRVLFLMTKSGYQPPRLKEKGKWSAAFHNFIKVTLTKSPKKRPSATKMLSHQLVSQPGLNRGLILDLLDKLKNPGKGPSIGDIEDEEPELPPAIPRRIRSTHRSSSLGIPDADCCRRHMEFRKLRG
A general note: In ADP-Glo the light output rises with the ADP produced.

Assay [4] deals with T2, Aurora A. Put plainly: Aurora A enzyme inhibition assay. It is filed as biochemical. As to the method:
Aurora A Enzyme Inhibition Assay
The compound was dissolved in 100% DMSO at the concentration of 10 mM. The Aurora A protein was purchased from Carna (05-101). 10 μL per well of 2.5×Aurora A protein was added to assay plate containing the test compound, centrifuged at 1000 rpm for 1 minute, and then incubated at 25° C. for 10 minutes. Peptide 21 was purchased from GL Biochem (116370) and ATP was purchased from Promega (V9102). The two were added 15 μL per well mixture of 1.67× peptide 21 (final conc. is 3 μM) and ATP (final conc. is 14.58 μM), centrifuged at 1000 rpm for 1 minute, then incubated at 25° C. for 40 minutes. Then added 30 μL of stop buffer (100 mM HEPES pH7.5, 0.015% Brij-35, 0.2% Coating Reagent 3, 50 mM EDTA) to the assay plate and centrifuged at 1000 rpm for 1 minute. the product was determined. Based on the results, the IC50 value of the compound was calculated.

The mark [5] stands for this setting: enzyme inhibition, read-out: FLT3-ITD IC50.
[6] abbreviates: protein degradation, human PBMC, read-out: HPK1 DC50.
Setting [7] is: protein degradation, human PBMC.
Where [8] appears, read: protein degradation, class symbol, read-out: FLT3 DC50 (nM)/Dmax (%).
Setting [9] is: class symbol, read-out: Aurora A DC50 (nM)/Dmax (%).
The mark [10] stands for this setting: protein degradation, human PBMC, class symbol, read-out: HPK1 DC50 (nM)/Dmax (%).

The pIC50 is the negative decadic logarithm of the IC50, by convention in mol/L. The term Dmax denotes the greatest extent of degradation seen.

Chain of FLT3-ITD (P36888 whole entry, looked up, change not shown): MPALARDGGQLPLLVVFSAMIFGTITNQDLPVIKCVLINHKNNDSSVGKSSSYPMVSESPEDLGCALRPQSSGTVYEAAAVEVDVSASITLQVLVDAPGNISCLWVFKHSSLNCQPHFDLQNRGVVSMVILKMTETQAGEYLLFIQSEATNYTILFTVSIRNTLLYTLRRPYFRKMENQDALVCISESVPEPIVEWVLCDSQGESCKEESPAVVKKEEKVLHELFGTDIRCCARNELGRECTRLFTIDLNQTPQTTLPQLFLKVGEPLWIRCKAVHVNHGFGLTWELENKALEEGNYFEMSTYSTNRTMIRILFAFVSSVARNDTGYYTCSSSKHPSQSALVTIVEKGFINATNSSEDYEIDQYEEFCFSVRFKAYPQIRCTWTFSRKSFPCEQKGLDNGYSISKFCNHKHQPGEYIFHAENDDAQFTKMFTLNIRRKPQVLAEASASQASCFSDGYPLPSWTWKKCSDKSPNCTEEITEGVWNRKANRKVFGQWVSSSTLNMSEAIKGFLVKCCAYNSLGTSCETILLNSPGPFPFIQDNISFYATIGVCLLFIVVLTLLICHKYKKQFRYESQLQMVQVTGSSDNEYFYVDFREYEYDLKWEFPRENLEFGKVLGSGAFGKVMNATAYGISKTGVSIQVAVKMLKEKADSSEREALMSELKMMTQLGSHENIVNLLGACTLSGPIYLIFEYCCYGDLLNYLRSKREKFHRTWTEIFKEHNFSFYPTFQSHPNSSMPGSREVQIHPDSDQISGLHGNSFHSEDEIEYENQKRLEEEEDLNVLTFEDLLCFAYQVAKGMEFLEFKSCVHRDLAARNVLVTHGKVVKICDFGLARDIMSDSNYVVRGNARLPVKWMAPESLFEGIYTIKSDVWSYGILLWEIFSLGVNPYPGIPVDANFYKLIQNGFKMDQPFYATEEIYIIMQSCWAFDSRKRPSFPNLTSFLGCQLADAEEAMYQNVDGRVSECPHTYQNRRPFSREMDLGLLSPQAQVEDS

`CCc1c[nH]c2ncc(-c3cccc(N4CCCN(CCN5CC(c6ccc7c(c6)C(=O)N(C6CCC(=O)NC6=O)C7)C5)C4=O)c3)c(Cl)c12` (stereo not drawn) [Example 1]: the pIC50 on FLT3-ITD (setting [5]) is 8.40. In addition, the DC50 at HPK1 [1] (setting [6]) was 173 nM; in the assay on FLT3 (setting [8]), more than 10000 nM; on Aurora A [2] (setting [9]), more than 10000 nM; in the assay with MEK 1/2 (read-out: MEK 1/2 DC50) it was 68 nM. For the same compound, on HPK1 [1] (setting [7]), the Dmax amounted to 75%. Also, in the assay on MEK 1/2, the “MEK 1/2 Dmax” value was 20%.

On FLT3-ITD, `CCc1c[nH]c2ncc(-c3cccc(N4CCCN(CCN5CC(c6ccc7c(c6)CN(C6CCC(=O)NC6=O)C7=O)C5)C4=O)c3)c(Cl)c12` (stereo not drawn) [Example 2] showed a pIC50 of 8.33. The DC50 on HPK1 [1] (read-out: HPK1 DC50, protein degradation, human PBMC) is 3 nM; with FLT3 (read-out: FLT3 DC50 (nM)/Dmax (%), protein degradation, class symbol) it was more than 10000 nM; at Aurora A [2] (read-out: Aurora A DC50 (nM)/Dmax (%), class symbol), more than 10000 nM; in the assay on MEK 1/2 (read-out: MEK 1/2 DC50 (nM)/Dmax (%), class symbol), more than 10000 nM. The Dmax at HPK1 [1] came out at 80%.

As to `CCc1c[nH]c2ncc(-c3cccc(N4CCCN(CCN5CCC(c6ccc7c(c6)C(=O)N(C6CCC(=O)NC6=O)C7=O)CC5)C4=O)c3)c(Cl)c12` (stereo not drawn) [Example 3, 5-(1-(2-(3-(3-(4-chloro-3-ethyl-1H-pyrrolo [2,3-b]pyridin-5-yl)phenyl)-2-oxotetrahydropyrimidin-1 (2H)-yl)ethyl)piperidin-4-yl)-2-(2,6-dioxopiperidin-3-yl) isoindoline-1,3-dione], the pIC50 is 8.24 on HPK1 [3], 7.87 at FLT3-ITD (setting [5]) and 7.29 against Aurora A [4].

Regarding `CCc1c[nH]c2ncc(-c3cccc(N4CCCN(CCN5CCN(c6ccc7c(N8CCC(=O)NC8=O)cccc7c6)CC5)C4=O)c3)c(Cl)c12` [Example 4, 1-(6-(4-(2-(3-(3-(4-chloro-3-ethyl-1H-pyrrolo [2,3-b]pyridin-5-yl)phenyl)-2-oxotetrahydropyrimidin-1 (2H)-yl)ethyl)piperazin-1-yl)naphthalen-1-yl) dihydropyrimidine-2, 4 (1H, 3H)-dione], the pIC50 on HPK1 [3] is 7.77; on FLT3-ITD (setting [5]) it was 7.62; against Aurora A [4], 7.60. For the same compound, the DC50 on HPK1 [1] (setting [10]) was more than 10000 nM; in the assay on FLT3 (setting [8]), more than 10000 nM; on Aurora A [2] (setting [9]) it was more than 10000 nM; in the assay with MEK 1/2 (read-out: MEK 1/2 DC50), less than 1 nM. The “MEK 1/2 Dmax” value in the assay with MEK 1/2 is 30%.

As for `CCc1c[nH]c2ncc(-c3cccc(N4CCCN(CCN5CC=C(c6ccc7c(c6)C(=O)N(C6CCC(=O)NC6=O)C7=O)CC5)C4=O)c3)c(Cl)c12` (stereo not drawn) [Example 5, 5-(1-(2-(3-(3-(4-chloro-3-ethyl-1H-pyrrolo [2,3-b]pyridin-5-yl)phenyl)-2-oxotetrahydropyrimidin-1 (2H)-yl)ethyl)-1,2,3,6-tetrahydropyridin-4-yl)-2-(2,6-dioxopiperidin-3-yl) isoindoline-1,3-dione], the pIC50 on HPK1 [3] was 7.87; at FLT3-ITD (setting [5]), 7.56; on Aurora A [4] it was 7.66. Moreover, the DC50 on HPK1 [1] (setting [10]) was more than 10000 nM; in the assay with FLT3 (setting [8]), more than 10000 nM; on Aurora A [2] (setting [9]), more than 10000 nM; in the assay on MEK 1/2 (read-out: MEK 1/2 DC50) it was 2.1 nM. In the assay on MEK 1/2, the “MEK 1/2 Dmax” value is on record as 65%.

Take `CCc1c[nH]c2ncc(-c3cccc(N4CCCN(CC5CCN(c6ccc7c(c6)C(=O)N(C6CCC(=O)N(C)C6=O)C7=O)CC5)C4=O)c3)c(Cl)c12` (stereo not drawn) [Example 10, 5-(4-((3-(3-(4-chloro-3-ethyl-1H-pyrrolo [2,3-b]pyridin-5-yl)phenyl)-2-oxotetrahydropyrimidin-1 (2H)-yl)methyl)piperidin-1-yl)-2-(1-methyl-2,6-dioxopiperidin-3-yl) isoindoline-1,3-dione]: the values for the pIC50 against HPK1 [3], at FLT3-ITD (setting [5]) and at Aurora A [4] were 7.51, 8.13 and 7.46, respectively.

`O=C1CCC(N2Cc3cc(N4CCC(CN5CCCN(c6cccc(-c7cnc8[nH]cc(C9CC9)c8c7Cl)c6)C5=O)CC4)ccc3C2=O)C(=O)N1` (stereo not drawn) [Example 12, 3-[5-(4-{[3-(3-{4-chloro-3-cyclopropyl-1H-pyrrolo [2,3-b]pyridin-3-yl}phenyl)-2-oxo-1,3-diazinan-1-yl]methyl}piperidin-1-yl)-1-oxo-3H-isoindol-2-yl]piperidine-2,6-dione] showed a pIC50 against HPK1 [3] of 7.46.

In the case of `O=C1CCC(N2Cc3cc(N4CCC(CN5CCCN(c6cccc(-c7cnc8[nH]cc(CC(F)F)c8c7Cl)c6)C5=O)CC4)ccc3C2=O)C(=O)N1` (stereo not drawn) [Example 14], the pIC50 against HPK1 [3] is 7.59. Moreover, the DC50 is 100 nM at HPK1 [1] (setting [6]); 11 nM with FLT3 (protein degradation, read-out: FLT3 DC50); less than 20 nM on Aurora A [2] (read-out: Aurora A DC50); less than 100 nM in the assay on MEK 1/2 (read-out: MEK 1/2 DC50). In addition, the Dmax at HPK1 [1] (setting [7]) is 90%; on Aurora A [2] (read-out: Aurora A Dmax), 95%. Besides, the “FLT3 Dmax” value in the assay with FLT3 (protein degradation) was found to be 95%. The “MEK 1/2 Dmax” value in the assay on MEK 1/2 was 90%.
